Assay results as given in patent US11542492B2 (Celgene CAR LLC, priority 2009, dated 2023).

Assays:
[1] = molecular target: T1, HCV NS3/4A 1b protease enzyme (wild type) (Hepatitis C virus genotype 1b, UniProt P26663); test: HCV protease FRET assay (IC50_APP), wild type NS3/4A 1b; type: biochemical
T1 construct: 10× stocks of NS3/4A protease enzyme from Bioenza (Mountain View, Calif.); purchased Bioenza
Procedure: HCV Protease FRET Assay for WT and Mutated NS3/4A 1b Enzymes (IC50_APP).
The following protocol was used to generate “apparent” IC50 (IC50_APP) values as depicted in Table 6, below. Without wishing to be bound by any particular theory, it is believed that IC50_APP, contrasted with IC50 values, may provide a more useful indication of time-dependent inhibition, and are thus more representative of binding affinity. […] 5 μL of each enzyme were added to Corning (#3575) 384-well, black, microtiter plates (Corning, N.Y.) after spotting a 0.5 μL volume of 50% DMSO and serially diluted compounds prepared in 50% DMSO. Protease reactions were immediately started after enzyme addition with the addition of 45 μL of the FRET substrate and monitored for 60-90 minutes at λex485/λem520 in a Synergy plate reader from BioTek (Winooski, Vt.). At the conclusion of each assay, progress curves from each well were examined for linear reaction kinetics and fit statistics (R^2, 95% confidence intervals, absolute sum of squares). Initial velocity (0 minutes to 15+ minutes) from each reaction was determined from the slope of a plot of relative fluorescence units vs time (minutes) and then plotted against inhibitor concentration as a percent of the no inhibitor and no enzyme controls to estimate apparent IC50 from log [Inhibitor] vs Response. (Variable Slope model in GraphPad Prism from GraphPad Software (San Diego, Calif.).)

HCV NS3 protease WT 1b = molecular target: T2, HCV NS3 protease WT 1b (Hepatitis C virus genotype 1b, UniProt P26663); test: MALDI MS of intact HCV protease 1b WT incubated with compound; type: binding; conditions: WT 1b, 1 HR
T2 construct: The single-chain proteolytic domain (NS4A21-32-GSGS-NS33-631) was cloned into pET-14b; His tag (own knowledge of vector pET-14b); made in house; host or cells: Escherichia coli BL21
Procedure: Intact HCV (protease) 1bWT was incubated for 1 hr at a 10× fold excess of XVI-26 to protein. 3 ul aliquots of the samples were diluted with 10 ul of 0.1% TFA prior to micro C4 ZipTipping directly onto the MALDI target using Sinapinic acid as the desorption matrix (10 mg/mL in 0.1% TFA:Acetonitrile 50:50). […] Due to likely protein misfolding during protein purification, a small portion of the misfolded protein was not modified.
In order to determine whether the modification of the protein occurred at lysine, the pH from the above experiment was increased from 7.4 to 10.0. Because the compound lysine adduct would be an amide any increase in pH would have minimal effect on the modified protein. If however, the modification occurred at cysteine the resultant thioester bond would be unstable and the compound would hydrolyze off the protein.
Intact HCV (protease) 1bWT, C159S, and C159S/K136A were incubated for 1 hr at a 10× fold excess of XVI-26 to protein. 3 μl aliquots of the samples were diluted with 10 μl of 0.1% TFA prior to micro C4 ZipTipping directly onto the MALDI target using Sinapinic acid as the desorption matrix (10 mg/mL in 0.1% TFA:Acetonitrile 50:50).
Intact HCV (protease) WT1b was incubated for 1 hr at a 10× fold excess of XVI-1 (mw=782.87) to protein. 3 μl aliquots of the samples were diluted with 10 μl of 0.1% TFA prior to micro C4 ZipTipping directly onto the MALDI target using Sinapinic acid as the desorption matrix (10 mg/mL in 0.1% TFA:Acetonitrile 50:50). […] Due to some protein misfolding during the purification of the protein, the unfolded portion of the protein can not react with XVI-1.

p110β/p85α (PI3Kβ) = molecular target: T3, p110β/p85α (PI3Kβ) (Homo sapiens, UniProt P42338); test: HTRF assay, p110β/p85α; type: biochemical; conditions: read-out: PI3Kβ HTRF IC50 Inhibition Designation
T3 construct: purchased Millipore 14-603
Procedure: The mechanics of the assay platform are best described by the vendor (Millipore, Billerica, Mass.) on their website at the following URL: http://www.millipore.com/coa/tech1/74jt4z.
Briefly, Stop solution (Stop A, #33-007 and Stop B, #33-009; 3:1 ratio) and Detection Mix (DMC, #33-015 with DMA, #33-011 and DMB, #33-013; 18:1:1 ratio) were prepared as recommended by the manufacturer ˜2 hrs prior to use. […] Lipid kinase reactions were started with the addition of 5 μL of ATP solution, mixed for 15 sec on a rotary plate shaker and incubated for 15-30 minutes at 25° C. Next, reactions were stopped with a 5 μL addition of Stop solution followed by a 5 μL volume of Detection Mix. […] At the conclusion of each assay, the HTRF ratio from fluorescence emission values for each well was calculated and % Inhibition determined from averaged controls wells. % Inhibition values for each compound re then plotted against inhibitor concentration to estimate IC50 from log [Inhibitor] vs Response, Variable Slope model in GraphPad Prism from GraphPad Software (San Diego, Calif.).

p120γ (PI3Kγ) = molecular target: T4, p120γ (PI3Kγ) (Homo sapiens, UniProt P48736); test: HTRF assay, p120γ; type: biochemical; conditions: PI3Kγ; read-out: PI3Kγ HTRF IC50 Inhibition Designation
T4 construct: purchased BPS Bioscience 40625
Text: The protocol below describes an end-point, competition-binding HTRF assay used to measure inherent potency of test compounds against active p110α/p85α, p110β/p85α, p120γ enzymes. The mechanics of the assay platform are best described by the vendor (Millipore, Billerica, Mass.) on their website at the following URL: http://www.millipore.com/coa/tech1/74jt4z.
Briefly, Stop solution (Stop A, #33-007 and Stop B, #33-009; 3:1 ratio) and Detection Mix (DMC, #33-015 with DMA, #33-011 and DMB, #33-013; 18:1:1 ratio) were prepared as recommended by the manufacturer ˜2 hrs prior to use. Additionally, 1× reaction buffer (4× buffer stock #33-003), a 1.4× stock of enzyme from BPS Bioscience (San Diego, Ca) or Millipore (Billerica, Mass.) with di-C8-PIP2 lipid substrate (#33-005), and a 4×ATP solution (#A7699) Sigma/Aldrich (St. Louis, Mo.) were prepared in 1×reaction buffer. 15 μL of enzyme and lipid substrate mix were pre-incubated in a Corning (#3573) 384-well, black, non-treated microtiter plate (Corning, N.Y.) for 30 min at 25° C. with a 0.5 μL volume of 50% DMSO and serially diluted compounds prepared in 50%-75% DMSO. Lipid kinase reactions were started with the addition of 5 μL of ATP solution, mixed for 15 sec on a rotary plate shaker and incubated for 15-30 minutes at 25° C. Next, reactions were stopped with a 5 μL addition of Stop solution followed by a 5 μL volume of Detection Mix. Stopped reactions were equilibrated for 1 and 18 hrs at room temperature and then read in a Synergy4 plate reader from BioTek (Winooski, Vt.) at λex330-80/λem620-35 and λem665-7.5. At the conclusion of each assay, the HTRF ratio from fluorescence emission values for each well was calculated and % Inhibition determined from averaged controls wells. % Inhibition values for each compound re then plotted against inhibitor concentration to estimate IC50 from log [Inhibitor] vs Response, Variable Slope model in GraphPad Prism from GraphPad Software (San Diego, Calif.).
Reagents Used in Optimized Protocol: • [p120γ]=1-4 nM, [ATP]=50 μM, [di-C8-PIP2]=10 μM • (40625; BPS Bioscience)

Row | SMILES | IC50 [1] [nM] | MS_HCVNS3_INTACT_NS3 WT 1b 1 HR (HCV NS3 protease WT 1b) | IC50 (p110β/p85α (PI3Kβ)) [nM] | IC50 (p120γ (PI3Kγ)) [nM]
1 | C=C[C@@H]1C[C@]1(NC(=O)[C@@H]1CC(Oc2nccc3cc(OC)ccc23)CN1C(=O)[C@H](CCC(=O)N1C[C@H]2C[C@@H]1C(=O)O2)NC(=O)OC(C)(C)C)C(=O)NS(=O)(=O)C1CC1 (stereo partly drawn) [XVI-8] | < 1 | G (>70% modification) | – | –
2 | CC(C)Oc1c(NCC(=O)N2CCN(Cc3cc4nc(-c5cnc(N)nc5)nc(N5CCOCC5)c4s3)CC2)c(=O)c1=O [XXII-27, 3-(2-(4-((2-(2-aminopyrimidin-5-yl)-4-morpholinothieno[3,2-d]pyrimidin-6-yl)methyl)piperazin-1-yl)-2-oxoethylamino)-4-isopropoxycyclobut-3-ene-1,2-dione] | – | – | 100 to 1000 | 100 to 1000
3 | COC(=O)N1C(=O)CC[C@@H]1C(=O)N1CCN(Cc2cc3nc(-c4cnc(N)nc4)nc(N4CCOCC4)c3s2)CC1 [XXII-28] | – | – | 100 to 1000 | 100 to 1000
4 | COC(=O)N1C(=O)CC[C@H]1C(=O)N1CCN(Cc2cc3nc(-c4cnc(N)nc4)nc(N4CCOCC4)c3s2)CC1 [XXII-29, (S)-methyl 2-(4-((2-(2-aminopyrimidin-5-yl)-4-morpholinothieno[3,2-d]pyrimidin-6-yl)methyl)piperazine-1-carbonyl)-5-oxopyrrolidine-1-carboxylate] | – | – | 100 to 1000 | 100 to 1000
5 | Nc1ncc(-c2nc(N3CCOCC3)c3sc(CN4CCN(C(=O)C5CCC(=O)S5)CC4)cc3n2)cn1 (stereo not drawn) [XXII-32, 5-(4-((2-(2-aminopyrimidin-5-yl)-4-morpholinothieno[3,2-d]pyrimidin-6-yl)methyl)piperazine-1-carbonyl)dihydrothiophen-2(3H)-one] | – | – | 100 to 1000 | 100 to 1000
6 | O=C1CC[C@@H](C(=O)N2CCN(Cc3cc4nc(-c5cccc6[nH]ncc56)nc(N5CCOCC5)c4s3)CC2)O1 [XXII-23] | – | – | 1000 to 10000 | 100 to 1000
7 | COc1ccc(NC(=O)[C@H]2CCC(=O)O2)cc1-n1c(CSc2ncnc3[nH]cnc23)nc2cccc(Cl)c2c1=O [XXXVII-2, (R)-N-(3-(2-((9H-purin-6-ylthio)methyl)-5-chloro-4-oxoquinazolin-3(4H)-yl)-4-methoxyphenyl)-5-oxotetrahydrofuran-2-carboxamide] | – | – | 100 to 1000 | –
8 | CC(C)Oc1c(N2CCN(Cc3cc4nc(-c5cnc(N)nc5)nc(N5CCOCC5)c4s3)CC2)c(=O)c1=O [XXII-26, 3-(4-((2-(2-aminopyrimidin-5-yl)-4-morpholinothieno[3,2-d]pyrimidin-6-yl)methyl)piperazin-1-yl)-4-isopropoxycyclobut-3-ene-1,2-dione] | – | – | 100 to 1000 | 100 to 1000
9 | CN(Cc1cc2nc(-c3cccc(O)c3)nc(N3CCOCC3)c2s1)C(=O)CCC(=O)N1CCC1=O [XXII-24, N-((2-(3-hydroxyphenyl)-4-morpholinothieno[3,2-d]pyrimidin-6-yl)methyl)-N-methyl-4-oxo-4-(2-oxoazetidin-1-yl)butanamide] | – | – | 100 to 1000 | –
10 | Nc1ncc(-c2nc(N3CCOCC3)c3sc(CN4CCN(C(=O)C5CSC(=O)C5)CC4)cc3n2)cn1 (stereo not drawn) [XXII-31, 4-(4-((2-(2-aminopyrimidin-5-yl)-4-morpholinothieno[3,2-d]pyrimidin-6-yl)methyl)piperazine-1-carbonyl)dihydrothiophen-2(3H)-one] | – | – | 100 to 1000 | 100 to 1000
11 | C=CC(=O)Nc1ccc(-c2ccnc3ccc(-c4cnc(OC)c(NS(=O)(=O)c5ccc(F)cc5F)c4)cc23)cc1 [XXV-14, N-(4-(6-(5-(2,4-difluorophenylsulfonamido)-6-methoxypyridin-3-yl)quinolin-4-yl)phenyl) acrylamide] | – | – | < 10 | –
12 | C/C=C/S(=O)(=O)N1CCN(Cc2cc3nc(-c4cnc(N)nc4)nc(N4CCOCC4)c3s2)CC1 [XXII-25, (E)-5-(4-morpholino-6-((4-(prop-1-enylsulfonyl)piperazin-1-yl)methyl)thieno[3,2-d]pyrimidin-2-yl)pyrimidin-2-amine] | – | – | 100 to 1000 | 10 to 100
13 | COc1ccc(C(=O)N2C[C@@H]3C[C@H]2C(=O)O3)cc1-n1c(CSc2ncnc3[nH]cnc23)nc2cccc(Cl)c2c1=O [XXXVII-1, (1S,4S)-5-(3-(2-((9H-purin-6-ylthio)methyl)-5-chloro-4-oxoquinazolin-3(4H)-yl)-4-methoxybenzoyl)-2-oxa-5-azabicyclo[2.2.1]heptan-3-one] | – | – | 100 to 1000 | –
14 | Nc1ncc(-c2nc(N3CCOCC3)c3sc(CN4CCN(C(=O)C5CCSC5=O)CC4)cc3n2)cn1 (stereo not drawn) [XXII-30, 3-(4-((2-(2-aminopyrimidin-5-yl)-4-morpholinothieno[3,2-d]pyrimidin-6-yl)methyl)piperazine-1-carbonyl)dihydrothiophen-2(3H)-one] | – | – | 100 to 1000 | 10 to 100
15 | COc1ncc(-c2ccc3nccc(-c4ccc(C(=O)N5C[C@@H]6C[C@H]5C(=O)O6)cc4)c3c2)cc1NS(=O)(=O)c1ccc(F)cc1F [XXV-13, 2,4-difluoro-N-(2-methoxy-5-(4-(4-((1S,4S)-3-oxo-2-oxa-5-azabicyclo[2.2.1]heptane-5-carbonyl)phenyl)quinolin-6-yl)pyridin-3-yl)benzenesulfonamide] | – | – | < 10 | –
16 | O=C1CC[C@H](C(=O)N2CCN(Cc3cc4nc(-c5cccc6[nH]ncc56)nc(N5CCOCC5)c4s3)CC2)O1 [XXII-22] | – | – | 100 to 1000 | 100 to 1000
